Columns and labels:
[1] = target: T1, Epidermal growth factor receptor (Homo sapiens, UniProt P00533); assay: biochemical; assay type: cell-based
[2] = tested on: MDA-MB-231; assay: cells; assay type: functional; details: Homo sapiens, MDA-MB-231, 48 h
Description: Growth inhibition of human MDA-MB-231 cells after 48 hrs by MTT assay

[3] = cells; assay type: cell-based; details: Homo sapiens, U-937
Description: Inhibition of TNFalpha-stimulated NF-kappaB (unknown origin) expressed in human U937 cells incubated for 3 hrs followed by TNFalpha stimulation measured after 2.5 hrs by luciferase reporter gene assay

[4] = target: T1, Epidermal growth factor receptor; details: at 150 nM
[5] = organism: Homo sapiens; details: at 10 µM;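 further: luciferase reporter readout of NF-kappaB activity in human U937 cells, compound added 3 h before TNFalpha stimulation, signal read 2.5 h after stimulation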
Description: Inhibition of TNFalpha-stimulated NF-kappaB (unknown origin) expressed in human U937 cells at 10 uM incubated for 3 hrs followed by TNFalpha stimulation measured after 2.5 hrs by luciferase reporter gene assay

[6] = organism: Homo sapiens; assay: Inhibition of TNFalpha-stimulated NF-kappaB (unknown origin) expressed in human U937 cells at 5 uM incubated for 3 hrs followed by TNFalpha stimulation measured after 2.5 hrs by luciferase reporter gene assay; assay type: cell-based

T1 sequence (P00533 whole entry): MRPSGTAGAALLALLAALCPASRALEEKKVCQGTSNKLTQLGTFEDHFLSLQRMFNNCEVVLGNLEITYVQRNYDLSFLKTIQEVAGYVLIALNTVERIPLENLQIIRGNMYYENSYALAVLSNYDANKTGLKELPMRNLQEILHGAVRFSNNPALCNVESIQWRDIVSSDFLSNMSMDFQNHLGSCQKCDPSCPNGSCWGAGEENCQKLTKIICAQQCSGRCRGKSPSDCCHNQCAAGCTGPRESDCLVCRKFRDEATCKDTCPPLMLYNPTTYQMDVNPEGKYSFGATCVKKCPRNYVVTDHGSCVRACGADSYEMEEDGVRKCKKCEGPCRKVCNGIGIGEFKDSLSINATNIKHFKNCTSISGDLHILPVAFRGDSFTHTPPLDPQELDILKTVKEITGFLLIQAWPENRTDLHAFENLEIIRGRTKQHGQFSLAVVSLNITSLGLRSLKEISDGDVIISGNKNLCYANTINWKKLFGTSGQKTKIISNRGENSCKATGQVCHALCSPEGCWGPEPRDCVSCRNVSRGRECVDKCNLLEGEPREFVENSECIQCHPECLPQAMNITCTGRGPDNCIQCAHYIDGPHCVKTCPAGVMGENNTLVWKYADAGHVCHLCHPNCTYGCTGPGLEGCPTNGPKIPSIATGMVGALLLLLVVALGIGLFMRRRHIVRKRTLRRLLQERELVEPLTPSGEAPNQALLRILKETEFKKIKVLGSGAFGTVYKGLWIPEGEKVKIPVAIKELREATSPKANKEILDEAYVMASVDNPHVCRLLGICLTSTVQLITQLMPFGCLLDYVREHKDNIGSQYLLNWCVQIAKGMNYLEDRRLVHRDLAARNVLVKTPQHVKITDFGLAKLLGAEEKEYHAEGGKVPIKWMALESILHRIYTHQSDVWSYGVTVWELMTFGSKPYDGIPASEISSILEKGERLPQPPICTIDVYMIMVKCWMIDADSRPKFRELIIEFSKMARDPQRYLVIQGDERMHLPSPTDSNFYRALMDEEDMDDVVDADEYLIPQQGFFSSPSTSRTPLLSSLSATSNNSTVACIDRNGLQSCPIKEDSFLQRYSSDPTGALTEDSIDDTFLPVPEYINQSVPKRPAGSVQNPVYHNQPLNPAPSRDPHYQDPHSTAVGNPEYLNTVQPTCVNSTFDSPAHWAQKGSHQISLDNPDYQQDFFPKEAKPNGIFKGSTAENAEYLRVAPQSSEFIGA

Compound	IC50 [1] [nM]	GI50 [2] [nM]	IC50 [3] [nM]	inhibition [4] [%]	inhibition [5] [%]	inhibition [6] [%]
S=C(NCc1ccccc1)Nc1ccc2ncnc(Nc3ccc(-c4ccccc4)cc3)c2c1	> 150	8400	4400	14.5	89.1	–
S=C(NCc1ccccc1)Nc1ccc2ncnc(Nc3cccc(Cl)c3)c2c1	–	7300	3700	–	89.7	–
Fc1ccc(NC(=S)Nc2ccc3ncnc(Nc4cccc(Cl)c4)c3c2)cc1F	–	–	–	44.4	–	37.6
NS(=O)(=O)c1ccc(Nc2ncnc3ccc(NC(=S)NCc4ccccc4)cc23)cc1	> 150	> 30000	–	17.7	19.2	–
S=C(Nc1ccc(Cl)c(Cl)c1)Nc1ccc2ncnc(Nc3cccc(Br)c3)c2c1	133	4800	1900	52.9	97.2	–
CC(C)c1ccc(Nc2ncnc3ccc(NC(=S)NCc4ccccc4)cc23)cc1	> 150	12800	4300	4.2	95.7	–
S=C(Nc1cc(Cl)cc(Cl)c1)Nc1ccc2ncnc(Nc3cccc(Br)c3)c2c1	146	3000	1800	50.9	99.6	–
Cc1cccc(Nc2ncnc3ccc(NC(=S)NCc4ccccc4)cc23)c1C	> 150	28700	–	40	71.5	–
Cc1nnc(NC(=S)Nc2ccc3ncnc(Nc4cccc(Cl)c4)c3c2)s1	120	–	1200	70.8	–	76.1
FC(F)(F)c1cccc(NC(=S)Nc2ccc3ncnc(Nc4cccc(Br)c4)c3c2)c1	60.7	1400	1000	57.5	96.5	–
S=C(NCc1ccccc1)Nc1ccc2ncnc(Nc3cccnc3)c2c1	> 150	17900	–	38.5	7.7	–
S=C(Nc1ccc2ncnc(Nc3cccc(Br)c3)c2c1)Nc1ccc(Cl)cc1Cl	48.9	12200	2900	66	93.1	–
N=C(N)NS(=O)(=O)c1ccc(Nc2ncnc3ccc(NC(=S)NCc4ccccc4)cc23)cc1	> 150	> 30000	–	6.7	21.7	–
CCc1cccc(Nc2ncnc3ccc(NC(=S)NCc4ccccc4)cc23)c1	> 150	10500	4800	41.7	92.5	–
COc1ccc(C(=O)Nc2ccc3ncnc(Nc4cccc(Br)c4)c3c2)cc1	–	–	–	–	33.2	–
FC(F)(F)c1nnc(NC(=S)Nc2ccc3ncnc(Nc4cccc(Cl)c4)c3c2)s1	130	–	1000	70.7	–	80.5
Oc1ccc(Nc2ncnc3ccc(NC(=S)NCc4ccccc4)cc23)cc1	> 150	27000	–	44.1	24.1	–
O=S(=O)(Nc1ccccn1)c1ccc(Nc2ncnc3ccc(NC(=S)NCc4ccccc4)cc23)cc1	> 150	> 30000	–	20.9	6.6	–
S=C(Nc1cncc(Cl)c1)Nc1ccc2ncnc(Nc3cccc(Cl)c3)c2c1	55.5	–	3000	85	–	78
S=C(NCc1ccccc1)Nc1ccc2ncnc(Nc3ccc(Br)cc3)c2c1	> 150	15100	3800	47.7	92.1	–
FC(F)(F)c1cc(NC(=S)Nc2ccc3ncnc(Nc4cccc(Br)c4)c3c2)cc(C(F)(F)F)c1	> 150	800	1900	32.3	100	–
FC(F)(F)c1ccc(NC(=S)Nc2ccc3ncnc(Nc4cccc(Br)c4)c3c2)cc1	> 150	12200	1700	38.1	94.8	–
S=C(NCc1ccccc1)Nc1ccc2ncnc(Nc3ccccc3Br)c2c1	> 150	> 30000	6500	13.1	85.7	–
Fc1c(NC(=S)Nc2ccc3ncnc(Nc4cccc(Br)c4)c3c2)cccc1C(F)(F)F	–	400	1300	–	98	–
S=C(NCc1ccccc1)Nc1ccc2ncnc(Nc3ccc(Oc4ccccc4)cc3)c2c1	> 150	6800	–	21.9	73.7	–
FC(F)(F)c1cc(NC(=S)Nc2ccc3ncnc(Nc4cccc(Br)c4)c3c2)ccc1Cl	> 150	1100	1700	44	99	–
Oc1cccc(Nc2ncnc3ccc(NC(=S)NCc4ccccc4)cc23)c1	63.6	> 30000	–	60.8	44.3	–
CC(C)(C)c1ccc(Nc2ncnc3ccc(NC(=S)NCc4ccccc4)cc23)cc1	> 150	8700	5510	0.9	91.9	–

The remaining compounds from weak to strong by IC50 [1], led by results:

IC50 [1] [nM]	GI50 [2] [nM]	IC50 [3] [nM]	inhibition [4] [%]	Compound	inhibition [5] [%]	inhibition [6] [%]
36.8	19500	–	68.5	Cc1cccc(Nc2ncnc3ccc(NC(=S)NCc4ccccc4)cc23)c1	76.4	–
35.4	> 30000	2000	70.4	S=C(Nc1ccc(Br)cc1)Nc1ccc2ncnc(Nc3cccc(Br)c3)c2c1	96.7	–
28.3	23000	–	77.5	S=C(NCc1ccc(Cl)cc1)Nc1ccc2ncnc(Nc3cccc(Br)c3)c2c1	78.6	–
26.9	> 30000	–	84	S=C(Nc1ccc2ncnc(Nc3cccc(Br)c3)c2c1)N1CCOCC1	40.1	–
22	> 30000	–	81.7	O=S(=O)(Nc1nccs1)c1ccc(NC(=S)Nc2ccc3ncnc(Nc4cccc(Br)c4)c3c2)cc1	16.5	–
19.5	8200	4900	79.6	S=C(Nc1ccc(Cl)cc1)Nc1ccc2ncnc(Nc3cccc(Br)c3)c2c1	89.5	–
19.3	10000	–	69	O=C(Nc1ccc(Cl)cc1)Nc1ccc2ncnc(Nc3cccc(Br)c3)c2c1	50.3	–
15.8	10000	5200	86.5	S=C(Nc1ccccc1)Nc1ccc2ncnc(Nc3cccc(Br)c3)c2c1	90.7	–
15.8	8500	3500	84.3	S=C(Nc1ccc2ncnc(Nc3cccc(Br)c3)c2c1)Nc1ccccc1Cl	95.8	–
10.7	> 30000	–	91.8	S=C(NCCN1CCOCC1)Nc1ccc2ncnc(Nc3cccc(Br)c3)c2c1	20.9	–
10.2	> 30000	–	90.4	S=C(Nc1cccnc1)Nc1ccc2ncnc(Nc3cccc(Br)c3)c2c1	42.4	–
9.5	> 30000	–	92.3	NS(=O)(=O)c1ccc(NC(=S)Nc2ccc3ncnc(Nc4cccc(Br)c4)c3c2)cc1	29	–
9.1	> 30000	–	92.2	CNC(=S)Nc1ccc2ncnc(Nc3cccc(Br)c3)c2c1	3	–
8.9	17300	6400	91.5	Oc1ccc(NC(=S)Nc2ccc3ncnc(Nc4cccc(Br)c4)c3c2)cc1	85.3	–
8.9	> 30000	–	89.9	O=C(NCc1ccccc1)Nc1ccc2ncnc(Nc3cccc(Br)c3)c2c1	42.6	–
8.4	–	–	–	O=C(Nc1ccc2ncnc(Nc3cccc(Br)c3)c2c1)c1ccco1	39.4	–
2.1	–	–	–	C=CC(=O)Nc1ccc2ncnc(Nc3ccc(Br)cc3F)c2c1	73.6	–
1.5	–	–	–	C=CC(=O)Nc1ccc2ncnc(Nc3cccc(C)c3F)c2c1	70	–

Reference: ChEMBL document CHEMBL4007489, “First Bispecific Inhibitors of the Epidermal Growth Factor Receptor Kinase and the NF-κB Activity As Novel Anticancer Agents” (J Med Chem, 2017)
